From patent US4528188A, “Polysaccharide PS-A obtained from barrenwort deriving from plants belonging to the genus Epimedium, process for preparation thereof and phylactic and immunostimulating agents comprising said polysaccharide PS-A effective component” (priority 1981, dated 1985)

Tests used:
E. coli ML 4707 [1] = test: Combination with antibiotics, normal state (Table 11); type: in vivo, E. coli; male mice of the ICR/JCL strain; conditions: only ampicillin, 12.5 mg/kg twice
Method: A sample was administered subcutaneously to the back of each of 5-weeks-old male mice of the ICR/JCL strain having a body weight of about 25 g (each group consisting of 10 mice) once a day continuously for five days (5 times in total). PS was given to a control group. On the sixth day, 1.0×10^7 cells of E. coli ML 4707 was challenged thereto by the intraperitoneal injection. 12.5 mg/kg of ampicillin (Ampicillin sodium for injection; produced by Toyama Kagaku Co., Ltd., Japan) was administered to each mouse twice (directly after the intraperitoneal injection and 4 hours thereafter). Seven days after the challenge, viable count was examined.

E. coli ML 4707 [2] = test: Combination with an antibiotic in the immunosuppressive state (Table 12); type: in vivo, E. coli; female mice of the ICR/JCL strain; conditions: only ampicillin, 6.25 mg/kg s.c.; cyclophosphamide
Method: A sample was administered subcutaneously to the back of each of 5-weeks-old female mice of the ICR/JCL strain having a body weight of about 25 g (each group consisting of 10 mice) once a day continuously for four days (4 times in total). PS was given to a control group. On the first day, 200 mg/kg of cyclophosphamide was injected to them by the intraperitoneal injection. On the next day of the final administration (i.e. on the fifth day), 1.0×10^6 cells of E. coli ML 4707 was challenged thereto by the intraperitoneal injection. One hour thereafter, 6.25 mg/kg of ampicillin (Ampicillin-sodium for injection; produced by Toyama Kagaku Co., Ltd., Japan) was administered to the back of each mouse by the subcutaneous injection. Seven days after the challenge, viable count was examined.

## CC1(C)S[C@@H]2[C@H](NC(=O)[C@H](N)c3ccccc3)C(=O)N2[C@H]1C(=O)O [ampicillin]
E. coli ML 4707 [1]
  Viable count: 20%
E. coli ML 4707 [2]
  Viable count: 10%
